Data on two compounds can be found in patent US20200239530A1, “COMPOUNDS AND METHODS OF MODULATING PROTEIN DEGRADATION” (Vividion Therapeutics, Inc., priority 2017, published 2020).

What all share (test): Cysteine liganding, probe competition
What all share (format): binding

The target in assay [1] is T1, L2HGDH L-2-hydroxyglutarate dehydrogenase, mitochondrial (Homo sapiens, UniProt Q9H9P8).
T1 construct: Cells were resuspended in cold PBS on ice and sonicated with a probe sonicator to achieve lysis; endogenous in cells
T1 sequence (Q9H9P8 52-463): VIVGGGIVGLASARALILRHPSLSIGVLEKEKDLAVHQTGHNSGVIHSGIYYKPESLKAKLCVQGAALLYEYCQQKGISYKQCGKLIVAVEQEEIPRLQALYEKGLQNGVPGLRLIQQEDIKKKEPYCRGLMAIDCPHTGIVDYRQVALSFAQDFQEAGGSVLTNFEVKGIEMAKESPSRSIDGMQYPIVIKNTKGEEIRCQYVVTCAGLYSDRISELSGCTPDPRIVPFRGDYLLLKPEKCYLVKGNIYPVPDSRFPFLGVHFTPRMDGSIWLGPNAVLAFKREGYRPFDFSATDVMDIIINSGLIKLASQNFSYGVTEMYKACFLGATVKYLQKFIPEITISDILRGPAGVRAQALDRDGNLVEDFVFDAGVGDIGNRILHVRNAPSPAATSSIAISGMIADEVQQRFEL
The gist of the method: (§1)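 Read-out is loss of desthiobiotin iodoacetamide labelling at cysteines, measured on streptavidin-enriched tryptic peptides. Compound preincubation ran 1 hr at 25° C in PBS lysate holding 5 mg/ml proteome before the probe was added.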

Assay [2] addresses T2, NOC2L Nucleolar complex protein 2 homolog (Homo sapiens, UniProt Q9Y3T9).
T2 construct: Cells were resuspended in cold PBS on ice and sonicated with a probe sonicator to achieve lysis; endogenous in cells
The method, boiled down: as §1

For assay [3], the target named is T3, PDCD11 Protein RRP5 homolog (Homo sapiens, UniProt Q14690).
T3 construct: Cells were resuspended in cold PBS on ice and sonicated with a probe sonicator to achieve lysis; endogenous in cells
T3 sequence (Q14690 whole entry): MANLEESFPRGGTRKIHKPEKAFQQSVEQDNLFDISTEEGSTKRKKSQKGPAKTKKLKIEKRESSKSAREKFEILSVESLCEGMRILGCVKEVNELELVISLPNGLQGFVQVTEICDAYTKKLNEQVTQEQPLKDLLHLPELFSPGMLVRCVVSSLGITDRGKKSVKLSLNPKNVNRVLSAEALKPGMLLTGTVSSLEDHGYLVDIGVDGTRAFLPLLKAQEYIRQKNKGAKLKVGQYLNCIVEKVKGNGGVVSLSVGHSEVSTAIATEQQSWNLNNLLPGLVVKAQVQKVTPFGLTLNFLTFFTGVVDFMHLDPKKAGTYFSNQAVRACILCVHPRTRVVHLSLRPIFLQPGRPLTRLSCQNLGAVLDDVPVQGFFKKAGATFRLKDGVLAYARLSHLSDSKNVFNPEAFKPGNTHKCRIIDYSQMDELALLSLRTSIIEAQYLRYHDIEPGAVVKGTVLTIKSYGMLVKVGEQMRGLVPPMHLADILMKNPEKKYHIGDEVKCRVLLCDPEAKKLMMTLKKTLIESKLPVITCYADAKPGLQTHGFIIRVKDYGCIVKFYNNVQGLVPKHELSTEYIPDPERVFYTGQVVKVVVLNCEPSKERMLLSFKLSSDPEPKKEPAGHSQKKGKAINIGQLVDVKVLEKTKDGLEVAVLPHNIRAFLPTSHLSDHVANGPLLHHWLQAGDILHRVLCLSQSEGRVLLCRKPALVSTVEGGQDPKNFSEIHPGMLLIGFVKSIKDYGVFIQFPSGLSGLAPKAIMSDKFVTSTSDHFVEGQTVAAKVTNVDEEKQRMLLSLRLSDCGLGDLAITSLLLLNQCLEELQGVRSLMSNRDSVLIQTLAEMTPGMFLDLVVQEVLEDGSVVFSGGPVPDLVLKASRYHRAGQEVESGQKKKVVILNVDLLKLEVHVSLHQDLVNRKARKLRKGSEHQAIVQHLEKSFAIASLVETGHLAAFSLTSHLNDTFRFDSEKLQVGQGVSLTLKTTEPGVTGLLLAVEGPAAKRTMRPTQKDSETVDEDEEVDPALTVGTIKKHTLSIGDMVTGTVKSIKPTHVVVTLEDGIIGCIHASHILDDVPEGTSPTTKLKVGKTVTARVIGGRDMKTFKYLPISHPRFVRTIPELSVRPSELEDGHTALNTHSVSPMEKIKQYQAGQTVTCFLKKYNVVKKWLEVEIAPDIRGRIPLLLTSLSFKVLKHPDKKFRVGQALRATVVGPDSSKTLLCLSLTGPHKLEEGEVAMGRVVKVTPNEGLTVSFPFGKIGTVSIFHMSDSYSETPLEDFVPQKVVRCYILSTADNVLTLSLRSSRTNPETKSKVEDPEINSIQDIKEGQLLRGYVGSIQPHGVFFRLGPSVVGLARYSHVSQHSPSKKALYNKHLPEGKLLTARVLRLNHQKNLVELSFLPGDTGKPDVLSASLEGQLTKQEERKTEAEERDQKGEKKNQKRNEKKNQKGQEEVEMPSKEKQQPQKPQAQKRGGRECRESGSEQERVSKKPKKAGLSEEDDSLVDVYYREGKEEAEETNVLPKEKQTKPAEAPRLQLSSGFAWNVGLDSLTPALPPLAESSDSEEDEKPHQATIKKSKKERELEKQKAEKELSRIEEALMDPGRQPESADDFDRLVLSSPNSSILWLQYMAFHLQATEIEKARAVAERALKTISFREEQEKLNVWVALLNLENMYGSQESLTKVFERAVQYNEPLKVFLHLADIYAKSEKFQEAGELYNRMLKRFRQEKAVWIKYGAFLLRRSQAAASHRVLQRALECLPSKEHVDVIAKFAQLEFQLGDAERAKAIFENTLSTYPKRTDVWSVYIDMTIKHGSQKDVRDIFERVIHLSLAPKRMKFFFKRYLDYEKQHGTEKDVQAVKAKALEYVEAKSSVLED
The gist of the method:
as §1

The next assay has as its target T4, PML Protein PML (Homo sapiens, UniProt P29590).
T4 construct: Cells were resuspended in cold PBS on ice and sonicated with a probe sonicator to achieve lysis; endogenous in cells
T4 sequence (P29590 1-882): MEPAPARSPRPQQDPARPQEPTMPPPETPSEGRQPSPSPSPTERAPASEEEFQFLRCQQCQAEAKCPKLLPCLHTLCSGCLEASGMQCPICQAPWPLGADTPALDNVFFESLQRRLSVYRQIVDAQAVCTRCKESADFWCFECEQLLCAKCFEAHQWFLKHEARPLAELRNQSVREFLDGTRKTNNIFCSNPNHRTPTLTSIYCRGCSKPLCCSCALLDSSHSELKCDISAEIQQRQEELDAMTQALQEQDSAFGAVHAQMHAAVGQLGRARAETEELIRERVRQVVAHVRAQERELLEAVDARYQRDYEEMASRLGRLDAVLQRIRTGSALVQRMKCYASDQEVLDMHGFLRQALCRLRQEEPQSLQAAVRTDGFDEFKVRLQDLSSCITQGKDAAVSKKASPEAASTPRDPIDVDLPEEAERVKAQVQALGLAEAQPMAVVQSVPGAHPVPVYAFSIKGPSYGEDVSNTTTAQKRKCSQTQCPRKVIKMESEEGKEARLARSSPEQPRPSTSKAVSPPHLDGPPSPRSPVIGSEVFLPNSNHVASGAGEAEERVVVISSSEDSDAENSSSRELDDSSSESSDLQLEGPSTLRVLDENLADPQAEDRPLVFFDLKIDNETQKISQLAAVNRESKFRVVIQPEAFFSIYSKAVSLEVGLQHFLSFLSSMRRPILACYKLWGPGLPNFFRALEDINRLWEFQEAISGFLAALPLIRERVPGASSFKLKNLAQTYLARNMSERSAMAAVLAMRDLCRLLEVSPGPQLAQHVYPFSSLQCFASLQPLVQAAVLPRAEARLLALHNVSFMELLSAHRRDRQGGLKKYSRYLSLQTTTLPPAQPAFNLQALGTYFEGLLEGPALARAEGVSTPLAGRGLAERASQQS
The method, boiled down:
as §1

For the compound `COc1ccc2c(c1)CCCN2C(=O)CCl` [KB02], the Liganded entry in assay [1] (L2HGDH Res# 187, uniprot Q9H9P8) is given as “YES”; in assay [2] (NOC2L Res# 585, uniprot Q9Y3T9) it was “YES”; in assay [3] (PDCD11 Res# 361, uniprot Q14690), “YES”; at PML Protein PML (PML Res# 479, uniprot P29590) it was “YES”; on PML Protein PML (PML Res# 484, uniprot P29590), “YES”.
For the compound `O=C(CCl)Nc1cc(C(F)(F)F)cc(C(F)(F)F)c1` [KBO3], in assay [1] (uniprot Q9H9P8), the “100 Max” value is 39.03, the 100 ave is given as 26.9925, the “500 Max” value was 70.21 and the 500 ave is reported as 67.435. Also, in assay [2] (uniprot Q9Y3T9), the “100 Max” value was 29.97, the 100 ave amounted to 7.195, the “500 Max” value is on record as 59.2 and the 500 ave was determined as 56.82. Also, in assay [3] (uniprot Q14690), the “100 Max” value came out at 19.85, the 100 ave was 3.78 and the 500 ave turned out to be 46.645. In addition, in assay [3] (uniprot Q14690, in % (unit assumed)), the “500 Max” value is 49.26. Besides, the “KB03_500 uM_percent_inhibition” value on PML Protein PML (UniProt P29590, 500 uM) is 69%.
